Target: cholera toxin B subunit (Vibrio cholerae serotype O1, UniProt P01556)
Assay type: binding

Chain of cholera toxin B subunit (P01556 22-124 limits assumed): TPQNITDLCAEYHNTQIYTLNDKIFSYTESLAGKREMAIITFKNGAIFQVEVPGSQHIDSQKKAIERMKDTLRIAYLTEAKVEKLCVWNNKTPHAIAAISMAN

SMILES	break through relative to void volume	break through volume (pH 6.9) [µL]
COC(=O)CCCCCCCCOC1OC(COC2OC(CO)C(O)C(O)C2O)C(O)C(OC2OC(CO)C(O)C(O)C2O)C1O (centres unmarked) [compound 3, αMan(1→3)[αMan(1→6)]βMan-OGr]	broke through in the void volume	–
CC(=O)N[C@H]1[C@H](O[C@@H]2[C@H](O[C@]3(C(=O)O)C[C@H](O)[C@@H](NC(C)=O)[C@H]([C@H](O)[C@H](O)CO)O3)[C@@H](O)[C@H](O[C@H]3[C@H](O)[C@@H](O)[C@H](O)O[C@@H]3CO)O[C@@H]2CO)O[C@H](CO)[C@H](O)[C@@H]1O[C@@H]1O[C@H](CO)[C@H](O)[C@H](O)[C@H]1O [compound 7, GM1 oligosaccharide]	–	~300

Source: patent US6723235B2, “Apparatus for screening compound libraries” (priority 1998, dated 2004)
